Reference: ChEMBL document CHEMBL1138707, “Bridgehead modification of trihalocycloheptabenzopyridine leads to a potent farnesyl protein transferase inhibitor with improved oral metabolic stability” (Bioorg Med Chem Lett, 2004)
pIC50: −log10 of the molar value.

What was measured:
[1] = target: T1, Protein farnesyltransferase (Homo sapiens, UniProt P49354+P49356); assay: Percent inhibition of [3H]FPP incorporation into H-ras CVLS by Farnesyltransferase at 17; format: protein-complex assay; settings: concentration not given here
[2] = target: T1, Protein farnesyltransferase; assay: Inhibition of [3H]FPP incorporation into H-ras CVLS by Farnesyltransferase; format: protein-complex assay
[3] = Inhibition of soft agar colony formation in H-Ras transformed cells; format: functional, cell-based
[4] = Area under the curve in rats by administering perorally; format: ADME; settings: rat, in vivo, po
[5] = Inhibition of H-Ras transformed NIH3T3 cell proliferation; format: functional, cell-based
[6] = Inhibition of COS cell proliferation; format: functional, cell-based
[7] = Oral bioavailability in rat; format: ADME, organism-based; settings: in vivo

| pIC50 [3] | AUC [4] | Structure (SMILES) | further results |
| --- | --- | --- | --- |
| 7.52 | 15.5 µg/h/mL | O=C(Cc1cc[n+]([O-])cc1)N1CCC([C@@H]2c3ncc(Br)cc3C=Cc3cc(Cl)cc(Br)c32)CC1 | pIC50 [2]: 9.49 |
| < 6.30 | 45.4 µg/h/mL | CS(=O)(=O)N1CCC([C@@H]2c3ncc(Br)cc3C=Cc3cc(Cl)cc(Br)c32)CC1 |  |
|  | 7 µg/h/mL | NC(=O)N1CCC(CC(=O)N2CCC([C@@H]3c4ncc(Br)cc4C=Cc4cc(Cl)cc(Br)c43)CC2)CC1 |  |

Second part, the compound before the results:

| Structure (SMILES) | pIC50 [3] | AUC [4] | further results |
| --- | --- | --- | --- |
| O=C(Cc1cc[n+]([O-])cc1)N1CCC([C@H]2c3ncc(Br)cc3C=Cc3cc(Cl)cc(Br)c32)CC1 |  |  | inhibition [1]: 44% |
| NC(=O)N1CCC(CC(=O)N2CCC([C@H]3c4ncc(Br)cc4CCc4cc(Cl)cc(Br)c43)CC2)CC1 [LONAFARNIB] | 7.15 | 24.1 µg/h/mL | pIC50 [5]: 4.14; pIC50 [6]: 8.00; bioavailability [7]: 76% |
